Laboratory results: ChEMBL document CHEMBL1817626, “The structure-activity relationship of urea derivatives as anti-tuberculosis agents” (Bioorg Med Chem, 2011)
In brackets after ≈: the same amount, converted by molar mass. Activity calls are given as the source filed them. No cut-off for these calls is given here.

What was measured:
[1] = target: T1, Epoxide hydrolase B (Mycobacterium tuberculosis) (UniProt P95276); test: Inhibition of Mycobacterium tuberculosis recombinant EphB expressed in Escherichia coli BL21 using CMNPC as substrate at 10 nM after 30 mins by fluorescent assay relative to control
T1 sequence (whole entry): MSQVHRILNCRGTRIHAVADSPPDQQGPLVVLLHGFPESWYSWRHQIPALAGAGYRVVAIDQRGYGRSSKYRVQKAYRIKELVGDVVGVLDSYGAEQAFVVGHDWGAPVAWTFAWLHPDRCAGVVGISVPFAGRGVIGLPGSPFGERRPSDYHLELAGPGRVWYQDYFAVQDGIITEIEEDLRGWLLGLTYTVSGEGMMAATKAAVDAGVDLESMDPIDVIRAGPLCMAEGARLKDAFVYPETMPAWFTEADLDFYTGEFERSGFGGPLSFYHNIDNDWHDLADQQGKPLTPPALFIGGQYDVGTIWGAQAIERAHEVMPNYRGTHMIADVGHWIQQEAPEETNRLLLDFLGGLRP

Bacillus anthracis = test: microbe, parasite or virus in culture
[2] = target: T2, Hydrolase, alpha/beta hydrolase fold family (Mycobacterium tuberculosis, UniProt O69638); test: Inhibition of Mycobacterium tuberculosis recombinant EphE expressed in Escherichia coli BL21 using CMNPC as substrate after 30 mins by fluorescent assay relative to control
T2 sequence (O69638 whole entry): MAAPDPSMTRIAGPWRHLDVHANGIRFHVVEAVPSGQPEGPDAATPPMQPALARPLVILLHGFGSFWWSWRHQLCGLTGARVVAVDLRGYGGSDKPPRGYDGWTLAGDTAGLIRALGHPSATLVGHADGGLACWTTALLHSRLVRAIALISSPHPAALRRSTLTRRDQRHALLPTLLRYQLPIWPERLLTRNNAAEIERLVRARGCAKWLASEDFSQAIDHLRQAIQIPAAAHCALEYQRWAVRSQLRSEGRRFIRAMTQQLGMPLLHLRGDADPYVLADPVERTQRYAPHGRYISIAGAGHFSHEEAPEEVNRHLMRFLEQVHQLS

[3] = test system: Mycobacterium tuberculosis; test: microbe, parasite or virus in culture; settings: H37Rv, 168 h
Escherichia coli [4] = test: Antibacterial activity against Escherichia coli […] TolC; format: functional
Escherichia coli [5] = test: Antibacterial activity against Escherichia coli K12; format: functional; settings: K-12
Staphylococcus aureus = test: Antibacterial activity against Staphylococcus aureus; format: functional
Klebsiella pneumoniae = test: Antibacterial activity against Klebsiella pneumoniae; format: functional
Enterococcus faecalis = test: Antibacterial activity against Enterococcus faecalis; format: functional
Enterococcus faecium = test: Antibacterial activity against Enterococcus faecium; format: functional
Pseudomonas aeruginosa = test: Antibacterial activity against Pseudomonas aeruginosa; format: functional
[6] = test system: Mycolicibacterium smegmatis; test: microbe, parasite or virus in culture; settings: str. MC2 155, 168 h
[7] = target: T3, Bifunctional epoxide hydrolase 2 (Homo sapiens, UniProt P34913); test: Inhibition of human recombinant soluble epoxide hydrolase using CMNPC as substrate after 10 mins by fluorescent assay
T3 sequence (P34913 whole entry): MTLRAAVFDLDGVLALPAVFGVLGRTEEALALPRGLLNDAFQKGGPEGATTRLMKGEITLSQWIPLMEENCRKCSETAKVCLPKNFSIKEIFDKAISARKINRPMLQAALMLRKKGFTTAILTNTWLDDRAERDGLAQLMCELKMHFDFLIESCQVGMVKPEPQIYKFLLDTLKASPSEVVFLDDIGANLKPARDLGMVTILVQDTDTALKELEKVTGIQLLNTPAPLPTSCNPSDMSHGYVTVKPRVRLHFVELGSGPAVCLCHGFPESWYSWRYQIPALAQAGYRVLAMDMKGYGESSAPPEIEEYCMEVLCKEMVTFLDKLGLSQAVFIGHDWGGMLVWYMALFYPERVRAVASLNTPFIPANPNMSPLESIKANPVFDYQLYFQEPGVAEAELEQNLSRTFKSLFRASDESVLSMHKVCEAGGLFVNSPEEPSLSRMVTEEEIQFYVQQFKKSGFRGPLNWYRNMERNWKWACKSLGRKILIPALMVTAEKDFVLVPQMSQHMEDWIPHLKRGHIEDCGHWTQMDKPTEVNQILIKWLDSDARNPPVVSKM

Epoxide hydrolase B = target: T4, Epoxide hydrolase B (Mycobacterium tuberculosis, UniProt P95276); test: Inhibition of Mycobacterium tuberculosis recombinant EphB expressed in Escherichia coli BL21 using CMNPC as substrate after 30 mins by fluorescent assay relative to control
T4 sequence (P95276 whole entry): T1 sequence (whole entry)

[8] = target: T5, Hydrolase, alpha/beta hydrolase fold family (Mycobacterium tuberculosis) (UniProt O69638); test: Inhibition of Mycobacterium tuberculosis recombinant EphE expressed in Escherichia coli BL21 using CMNPC as substrate at 10 nM after 30 mins by fluorescent assay relative to control
T5 sequence (whole entry): T2 sequence (O69638 whole entry)

Vero = test: Cytotoxicity against african green monkey Vero cells after 72 hrs by MTT assay; format: cell-based; settings: Chlorocebus sabaeus

CC(C)CCOc1ccc(NC(=S)Nc2ccc(OCCC(C)C)cc2)cc1 [TIOCARLIDE] was tested, and the inhibition [1] was “inactive”, the MIC (Bacillus anthracis) was greater than 200 µg/mL and the IC50 [2] was 0.022 µM. It also gave an MIC [3] of 2.5 µg/mL (≈ 6.24 µM), an MIC (Escherichia coli [4]) greater than 200 µg/mL and an MIC (Escherichia coli [5]) greater than 200 µg/mL. For the same molecule, the MIC (Staphylococcus aureus) was greater than 200 µg/mL, the MIC (Klebsiella pneumoniae) was greater than 200 µg/mL and the MIC (Enterococcus faecalis) was greater than 200 µg/mL. For the same molecule, the MIC (Enterococcus faecium) was greater than 200 µg/mL, the MIC (Pseudomonas aeruginosa) was greater than 200 µg/mL and the MIC [6] was greater than 200 µg/mL.
CC(=O)C1CCC(NC(=O)Nc2ccc(OC(F)(F)F)cc2)CC1 (stereo unspecified) gave an IC50 [7] of 0.012 µM and an IC50 (Epoxide hydrolase B) of 31.6 µM.
CC(=O)c1cccc(NC(=O)NC2C3CC4CC(C3)CC2C4)c1 (stereo unspecified) showed an inhibition [1] of 80.6%, an MIC (Bacillus anthracis) greater than 200 µg/mL and an IC50 [7] of 0.0005 µM. It also gave an MIC [3] of 0.1 µg/mL (≈ 0.32 µM), an MIC (Escherichia coli [4]) greater than 200 µg/mL and an inhibition [8] of 31.4%. For the same molecule, the MIC (Escherichia coli [5]) was greater than 200 µg/mL, the MIC (Staphylococcus aureus) was greater than 200 µg/mL and the IC50 (Vero) was 9.7 µg/mL (≈ 31 µM). The MIC (Klebsiella pneumoniae) was greater than 200 µg/mL, the MIC (Enterococcus faecalis) was greater than 200 µg/mL and the MIC (Enterococcus faecium) was greater than 200 µg/mL. The MIC (Pseudomonas aeruginosa) was greater than 200 µg/mL and the MIC [6] was 6.25 µg/mL (≈ 20 µM).
Work on COCCCNC(=O)NC12CC3CC(CC(C3)C1)C2 yielded an inhibition [1] of 23.7%, an MIC (Bacillus anthracis) greater than 200 µg/mL and an IC50 [7] of 0.386 µM. The MIC [3] was 100 µg/mL (≈ 375 µM), the MIC (Escherichia coli [4]) was greater than 200 µg/mL and the inhibition [8] was 35.9%. It also gave an MIC (Escherichia coli [5]) greater than 200 µg/mL, an MIC (Staphylococcus aureus) greater than 200 µg/mL and an IC50 (Vero) of 20.4 µg/mL (≈ 76.6 µM). For the same molecule, the MIC (Klebsiella pneumoniae) was greater than 200 µg/mL, the MIC (Enterococcus faecalis) was greater than 200 µg/mL and the MIC (Enterococcus faecium) was greater than 200 µg/mL. The MIC (Pseudomonas aeruginosa) was greater than 200 µg/mL and the MIC [6] was 200 µg/mL (≈ 751 µM).
In the case of CC(CCc1ccccc1)NC(=O)Nc1cccc(C(F)(F)F)c1F (stereo unspecified), the inhibition [1] is reported as “inactive”, the MIC (Bacillus anthracis) is reported as greater than 200 µg/mL and the IC50 [7] is reported as 0.0019 µM. For the same molecule, the MIC [3] was 1.6 µg/mL (≈ 4.52 µM), the MIC (Escherichia coli [4]) was 6.25 µg/mL (≈ 17.6 µM) and the inhibition [8] was 63.9%. For the same molecule, the MIC (Escherichia coli [5]) was greater than 200 µg/mL, the MIC (Staphylococcus aureus) was greater than 200 µg/mL and the IC50 (Vero) was 38.5 µg/mL (≈ 109 µM). For the same molecule, the MIC (Klebsiella pneumoniae) was greater than 200 µg/mL, the MIC (Enterococcus faecalis) was 100 µg/mL (≈ 282 µM) and the MIC (Enterococcus faecium) was 100 µg/mL (≈ 282 µM). For the same molecule, the MIC (Pseudomonas aeruginosa) was greater than 200 µg/mL and the MIC [6] was 6.25 µg/mL (≈ 17.6 µM).
